Experimental data published in patent US20240180900A1, “COMPOUNDS AND METHODS FOR THE TARGETED DEGRADATION OF ANDROGEN RECEPTOR” (Arvinas Operations, Inc., priority 2022, published 2024).

Experiments:
AR W742L = biological target: T1, AR W742L (Homo sapiens, UniProt P10275, W742L); test: AR degradation in T-Rex-293 cell line, W742L; assay type: cell-based; details: T-Rex-293, ELISA
T1 construct: expressed in transfected cells; host or cells: T-REx-293
From the text: (§1) FIG. 3 is a graph showing Compound A's ability to degrade clinically relevant mutated forms AR.
(§2) To assess the ability of Compound A to degrade variants of the AR, vectors expressing wild-type AR or mutant AR proteins harboring clinically observed mutations in the ligand binding domain (13 with single amino acid changes or 4 with 2 amino acid changes) (Azad A. A., Volik S. V., Wyatt A. W., et al. Androgen receptor gene aberrations in circulating cell-free DNA: biomarkers of therapeutic resistance in castration-resistant prostate cancer. Clin Cancer Res. 2015; 21:2315-2324; Robinson D., Van Allen E. M., Wu Y. M., et al. Integrative clinical genomics of advanced prostate cancer. Cell. 2015; 161:1215-1228; Ledet E. M., Lilly M. B., Sonpavde G., et al. Comprehensive analysis of AR alterations in circulating tumor DNA from patients with advanced prostate cancer. Oncologist.

AR M750T = biological target: T2, AR M750T (Homo sapiens, UniProt P10275, M750T); test: AR degradation in T-Rex-293 cell line, M750T; assay type: cell-based; details: T-Rex-293, ELISA
T2 construct: expressed in transfected cells; host or cells: T-REx-293
T2 sequence (P10275 whole entry M750T): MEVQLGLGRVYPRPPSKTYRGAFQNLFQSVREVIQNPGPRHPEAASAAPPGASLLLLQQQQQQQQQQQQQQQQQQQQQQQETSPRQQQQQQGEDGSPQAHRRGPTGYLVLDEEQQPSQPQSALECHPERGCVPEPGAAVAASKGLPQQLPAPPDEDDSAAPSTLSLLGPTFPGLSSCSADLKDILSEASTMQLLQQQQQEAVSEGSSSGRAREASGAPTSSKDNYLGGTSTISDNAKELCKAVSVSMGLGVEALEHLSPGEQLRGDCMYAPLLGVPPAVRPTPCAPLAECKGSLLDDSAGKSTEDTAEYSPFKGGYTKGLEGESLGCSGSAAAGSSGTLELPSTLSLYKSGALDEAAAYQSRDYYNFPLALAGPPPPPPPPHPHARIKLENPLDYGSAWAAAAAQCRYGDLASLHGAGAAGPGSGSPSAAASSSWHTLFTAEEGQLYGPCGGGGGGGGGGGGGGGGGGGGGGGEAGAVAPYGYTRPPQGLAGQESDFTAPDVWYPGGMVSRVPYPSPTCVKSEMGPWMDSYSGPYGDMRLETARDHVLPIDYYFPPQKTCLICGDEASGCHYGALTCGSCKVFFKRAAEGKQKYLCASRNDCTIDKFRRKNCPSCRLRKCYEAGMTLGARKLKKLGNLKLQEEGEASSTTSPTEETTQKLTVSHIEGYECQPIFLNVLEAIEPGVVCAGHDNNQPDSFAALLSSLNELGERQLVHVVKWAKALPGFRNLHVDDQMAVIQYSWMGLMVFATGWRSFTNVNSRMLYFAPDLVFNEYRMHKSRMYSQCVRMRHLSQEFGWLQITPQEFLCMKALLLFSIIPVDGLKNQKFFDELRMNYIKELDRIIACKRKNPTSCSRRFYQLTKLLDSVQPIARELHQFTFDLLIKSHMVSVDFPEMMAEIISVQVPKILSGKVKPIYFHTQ
From the text: as §1, §2

AR S889G = biological target: T3, AR S889G (Homo sapiens, UniProt P10275, S889G); test: AR degradation in T-Rex-293 cell line, S889G; assay type: cell-based; details: T-Rex-293, ELISA
T3 construct: expressed in transfected cells; host or cells: T-REx-293
T3 sequence (P10275 whole entry S889G): as the sequence (P10275 whole entry M750T) above, with T750M, S889G counted along it
From the text: as §1, §2

AR T878A/D891H = biological target: T4, AR T878A/D891H (Homo sapiens, UniProt P10275, D891H/T878A); test: AR degradation in T-Rex-293 cell line, T878A/D891H; assay type: cell-based; details: T-Rex-293, ELISA
T4 construct: expressed in transfected cells; host or cells: T-REx-293
T4 sequence (P10275 whole entry T878A/D891H): as the sequence (P10275 whole entry M750T) above, with T750M, T878A, D891H counted along it
From the text: as §1, §2

[1] = tested on: mutant AR proteins (ligand binding domain mutations); test: degradation of clinically relevant AR point mutants in HEK293 or T-REx-293 cells; assay type: cell-based, human; details: stably transfected
Protocol: Plasmids expressing AR WT or the indicated AR mutants were stably transfected into HEK293 cells. Each cell line was treated with indicated concentrations of Compound A for 24 hours. AR levels were determined by AR ELISA without background subtraction. […]
as §2

AR = biological target: T5, AR (Homo sapiens, UniProt P10275); test: selectivity screening panel: AR binding; details: 1 μM
T5 sequence (P10275 1-920): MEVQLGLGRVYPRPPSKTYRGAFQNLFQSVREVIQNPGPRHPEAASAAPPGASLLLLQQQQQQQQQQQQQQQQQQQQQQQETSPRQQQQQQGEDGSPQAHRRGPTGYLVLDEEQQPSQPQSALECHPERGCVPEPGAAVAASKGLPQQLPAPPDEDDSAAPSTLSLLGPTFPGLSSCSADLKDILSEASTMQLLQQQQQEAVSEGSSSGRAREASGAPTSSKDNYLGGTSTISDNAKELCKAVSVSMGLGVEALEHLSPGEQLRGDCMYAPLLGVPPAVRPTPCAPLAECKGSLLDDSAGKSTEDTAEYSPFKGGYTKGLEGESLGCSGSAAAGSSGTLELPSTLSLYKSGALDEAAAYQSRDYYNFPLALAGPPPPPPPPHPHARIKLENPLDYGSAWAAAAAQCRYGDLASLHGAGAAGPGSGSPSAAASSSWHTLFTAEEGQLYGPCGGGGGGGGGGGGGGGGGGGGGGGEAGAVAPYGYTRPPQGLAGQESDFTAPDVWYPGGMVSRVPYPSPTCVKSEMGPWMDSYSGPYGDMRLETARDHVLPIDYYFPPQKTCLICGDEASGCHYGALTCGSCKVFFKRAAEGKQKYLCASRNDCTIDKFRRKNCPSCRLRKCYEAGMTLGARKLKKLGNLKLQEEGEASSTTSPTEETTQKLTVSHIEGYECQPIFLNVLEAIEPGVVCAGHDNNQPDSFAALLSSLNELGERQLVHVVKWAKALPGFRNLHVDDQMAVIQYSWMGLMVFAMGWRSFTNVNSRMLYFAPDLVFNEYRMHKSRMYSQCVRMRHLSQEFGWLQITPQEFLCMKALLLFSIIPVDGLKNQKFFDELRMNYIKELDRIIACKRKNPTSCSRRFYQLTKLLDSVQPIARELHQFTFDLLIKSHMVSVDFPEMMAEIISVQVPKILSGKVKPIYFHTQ
Protocol: (§3) Compound A was tested at 1 μM in a screening study to assess the interaction of Compound A with a panel of 44 targets, including receptors, ion channels, transporters, and enzymes. Any effect greater than 50% of the positive control for a target was considered to represent an interaction of the test compound with the target.

[2] = tested on: receptors, ion channels, transporters, and enzymes; test: selectivity screening panel of 44 targets: other targets; assay type: binding; details: 1 μM; interaction = effect greater than 50% of positive control
Protocol: as §3

[3] = preclinical exposure in the VCaP tumor xenograft mouse model; details: CB17/scid, in vivo, oral, 1 mg/kg/day, read-out: AUCinf, minimally efficacious preclinical exposure
Protocol: Exposure at the 100 mg QD dose (N=6) with mean steady-state Compound A AUC0-24=4,610 ng*hr/mL on Cycle 1 Day 21 achieved the minimally efficacious preclinical exposure associated with tumor growth inhibition in the VCaP tumor xenograft mouse model (AUCinf=3,930 ng*hr/mL at 1 mg/kg/day dose; data not included).

T1 sequence (P10275 whole entry W742L): as the sequence (P10275 whole entry M750T) above, with W742L, T750M counted along it

SMILES: COc1cc(O[C@H]2C(C)(C)[C@H](NC(=O)c3ccc(N4CCC(CN5CCN(c6ccc(C(=O)N[C@H]7CCC(=O)NC7=O)c(F)c6)CC5)CC4)cc3)C2(C)C)ccc1C#N [Compound A, 4-(4-((1-(4-(((1R,3R)-3-(4-cyano-3-methoxyphenoxy)-2,2,4,4-tetramethylcyclobutyl)carbamoyl)phenyl)piperidin-4-yl)methyl)piperazin-1-yl)-N—((S)-2,6-dioxopiperidin-3-yl)-2-fluorobenzamide]
- DC50 (AR W742L): 2.3 nM
- DC50 (AR M750T): 0.6 nM
- DC50 (AR S889G): 3.1 nM
- DC50 (AR T878A/D891H): 3.4 nM
- degradation of all clinically relevant AR point mutants tested vs wild-type AR [1]: comparable to that observed for wild-type AR
- binding to AR, % of positive control testosterone (AR): 98.6%
- interaction with any other target of the panel of 44 targets [2]: No interaction with any other target was identified
- AUC(0-inf) [3]: 3930 ng·h/mL
